From patent publication US20240024291A1, “Uses of Dihydroorotate Dehydrogenase Inhibitors” (University of Maryland, Baltimore, priority 2022, published 2024)

Tests used:
[1] = system: 913 glioblastoma neurosphere line; assay: CellTiter-Glo in vitro proliferation assay; format: cell-based, human
Description: (§1) A Biospherix X3, hypoxic incubation system, was maintained at 37° C., 1% 02, 5% CO2, and 94% N2 (Biospherix, Ltd—Parish, NY) to conduct in vitro hypoxic experiments. Cells were plated, then incubated in normoxia overnight before transferring the culture dishes to hypoxia for the duration indicated in the main text.
(§2) […] Cell Titer-Glo® Luminescent Cell Viability Assay (Promega, Madison, WI, USA) was performed 72 hours after treatment. Luminescence was determined using a Cytation 5 reader and Gen5 software package (BioTek, Winooski, VT, USA).
(§3) The compound's efficacy was examined against a collection of genetically diverse patient-derived GSC lines in vitro. The IC50 profiles of compound 1 in the seven GSC lines tested were established using the CellTiter-Glo® reagent and calculated with GraphPad software.

[2] = system: 08-387 glioblastoma neurosphere line; assay: CellTiter-Glo in vitro proliferation assay; format: cell-based, human; settings: for IC50: Homo sapiens
Description: as §1, §2, §3

[3] = system: 3691 glioblastoma neurosphere line; assay: CellTiter-Glo in vitro proliferation assay; format: cell-based; settings: Homo sapiens, 72 h, 3691 (table prints 3639)
Description: as §1
(§4) Glioblastoma neurosphere lines were plated in 96-well plates at 25,000 cells per well in […] of media and treated with compound 1 in the presence or absence of 100 μM uridine. Cell Titer-Glo® Luminescent Cell Viability Assay (Promega, Madison, WI, USA) was performed 72 hours after treatment. Luminescence was determined using a Cytation 5 reader and Gen5 software package (BioTek, Winooski, VT, USA).
as §3

[4] = system: Mayo15 glioblastoma neurosphere line; assay: CellTiter-Glo in vitro proliferation assay; format: cell-based; settings: Homo sapiens
Description: as §1, §4, §3

[5] = system: 1079 glioblastoma neurosphere line; assay: CellTiter-Glo in vitro proliferation assay; format: cell-based; settings: Homo sapiens
Description: as §1, §4, §3

[6] = system: Mayo6 glioblastoma neurosphere line; assay: CellTiter-Glo in vitro proliferation assay; format: cell-based; settings: Homo sapiens
Description: as §1, §4, §3

[7] = system: Mayo39 glioblastoma neurosphere line; assay: CellTiter-Glo in vitro proliferation assay; format: cell-based; settings: Homo sapiens
Description: as §1, §4, §3

[8] = system: 913 PIP-FUCCI reporter cells; assay: PIP-FUCCI in vitro cell cycle assay; format: cell-based, human; settings: for percentage of cells in the S phase: 48 hours (DMSO 20%)
Description: To monitor cell cycle progression, 913 glioblastoma neurosphere-derived cells expressing pLenti-PGK-Neo-PIP-FUCCI were first cloned. pLenti-PGK-Neo-PIP-FUCCI was from Jean Cook (Addgene plasmid #118616; n2t.net/addgene:118616; RRID:Addgene_118616) (52). Cells were then treated with either 0, 10 nM, or 100 nM compound 1 for 48 hours, stained with 1 mg/mL Hoechst for 2 hours, and visualized by direct fluorescence microscopy. A twenty-four-hour treatment with […] of the DNA replication inhibitor Aphidicolin was used as a positive control for S-phase arrest. A collection of five images per well, each set containing at least 10,000 cells, was captured for each treatment. Each treatment was performed in technical quadruplicates, and each experiment was repeated twice on different days. Images were acquired using Cytation 5 plate reader (BioTek, Winooski, VT, USA) and scored using Gen5 software. Cell cycle phases were determined by x/y plot of mVenus and mCherry intensities per nucleus and gating boundaries on the Aphidicolin control.
It has been reported that depletion of pyrimidine nucleotides leads to incomplete DNA replication and elicits a stress response that blocks cell cycle progression. […] The original design was developed in 2008 by Miyawaki and colleagues (51).

[9] = system: 1079 glioblastoma neurosphere line; assay: gH2AX foci immunofluorescence (DNA damage); format: cell-based, human; settings: IC50 dose
Description: (§5) The 913, 3691, 08-387, and 1079 glioblastoma neurosphere-derived cells (1×10^4) were treated with DMSO (control) or IC50 concentration of compound 1 and cultured in either normoxia or hypoxia for 48 hours. Cells were spun with a Milles Scientific Cyto-Tek Model 4325 cytocentrifuge slide centrifuge onto Superfrost slides (VWR-48311-703) at 1500 rpm for 5 minutes. Slides were rinsed briefly with Hanks Balanced Salt Solution (HBSS), fixed in 4% paraformaldehyde in PBS, and rinsed with HBSS twice to remove any residual fixative. Cells were permeabilized with PBS containing 0.1% Triton-X100 (PBST) for 15 minutes, then blocked for 1 hour with PBST with 5% BSA. The slides were incubated overnight at 4° C. with Phospho-H2AX antibody (see above), diluted 1:250 in PBST containing 5% BSA. Slides were rinsed three times with HBSS, then incubated for one hour at room temperature with donkey anti-mouse, Alexa488-conjugated, secondary antibody diluted 1:500 in PBST containing 5% BSA (see above). Cell nuclei were counterstained with DAPI (150 nM), and the slides were cover-slipped with Prolong antifade mounting media (Molecular Probes #P36961). Using a 40X objective, at least ten random high-power fields, per condition, were captured with a Nikon W-1 Spinning Disk confocal microscope through the University of Maryland Baltimore CIBR confocal facility. The number of yH2AX-positive foci per cell was counted using ImageJ (unige.ch/medecine/bioimaging/files/3714/1208/5964/CellCounting.pdf). Individual cells with ten or more foci were considered positive for significant DNA damage. At least 300 cells were analyzed in each sample.
(§6) Reduced de novo pyrimidine synthesis mediated by MCT4-depletion promoted an accumulation of DNA damage (29). To test and quantify the magnitude of compound 1 effect on DNA damage, the four compound 1 responsive GBM neurosphere lines 913, 3691, 08-387, and 1079 were cultured in normoxia (21% oxygen) and hypoxia (1% oxygen) with a model-specific IC50 dose of compound 1 for 48 hours followed by immunocytochemical analysis of the DNA-damage marker g-H2AX. Table 1 is a summary of IC50 (nM or mM) values established for the seven glioblastoma neurosphere lines

[10] = system: 913 glioblastoma neurosphere line; assay: gH2AX foci immunofluorescence (DNA damage); format: cell-based, human; settings: IC50 dose
Description: as §5, §6

CCn1c(CO)nn(-c2cc(O[C@@H](C)C(F)(F)F)c(C(=O)Nc3c(F)cccc3Cl)cc2F)c1=O [Compound 1, N-(2-chloro-6-fluorophenyl)-4-[4-ethyl-4,5-dihydro-3-(hydroxymethyl)-5-oxo-1H-1,2,4-triazol-1-yl]-5-fluoro-2-[(1S)-2,2,2-trifluoro-1-methylethoxy]-benzamide]
effect of uridine on growth inhibition ([1]; 913, with 100 mM uridine, all concentrations tested): entirely rescued | IC50 ([1]; Homo sapiens, 913, uridine rescue experiment, compound 1 alone, normoxia and hypoxia): 0.001 to 0.01 µM | IC50 ([1]; Homo sapiens, 72 h, 913, hypoxia (1% oxygen), 72 hours): 0.0067 µM | IC50 ([1]; Homo sapiens, 72 h, 913, normoxia (21% oxygen), 72 hours): 0.0153 µM | effect of uridine on growth inhibition ([2]; 08-387, with 100 mM uridine, all concentrations tested): entirely rescued | IC50 ([2]; 08-387, uridine rescue experiment, compound 1 alone, normoxia and hypoxia): 0.001 to 0.01 µM | IC50 ([2]; 72 h, 08-387, hypoxia): 0.0114 µM | IC50 ([2]; 72 h, 08-387, normoxia): 0.0047 µM | IC50 ([3]; hypoxia): 0.0122 µM | IC50 ([3]; normoxia): 0.0074 µM | IC50 ([4]; 72 h, Mayo15, hypoxia): 146 µM | IC50 ([4]; 72 h, Mayo15, normoxia): 64 µM | IC50 ([4]; Mayo15): 64 µM | IC50 [5]; 1079: 1.2 µM | IC50 ([5]; 72 h, 1079, hypoxia, 72 hours): 23.7 µM | IC50 ([5]; 72 h, 1079, normoxia, 72 hours): 1.2 µM | IC50 ([6]; 72 h, Mayo6, hypoxia): 228 µM | IC50 ([6]; 72 h, Mayo6, normoxia): 164 µM | IC50 ([6]; Mayo6): 164 µM | IC50 ([7]; 72 h, Mayo39, hypoxia): 153 µM | IC50 ([7]; 72 h, Mayo39, normoxia): 182 µM | IC50 ([7]; Mayo39): 182 µM | percentage of cells in the S phase ([8]; 10 nM): 70% | percentage of cells in the S phase ([8]; 100 nM): 64% | cell cycle effects with uridine supplementation ([8]; uridine supplementation): completely blocked | g-H2AX positivity ([9]; 1079, hypoxia, 48 hours (control 16.2%)): 38.4% | g-H2AX positivity ([9]; 1079, normoxia, 48 hours (control 14.8%)): 32.4% | nuclei with multiple gH2AX-positive foci ([10]; 913, hypoxia, 48 hours (control 2.3%)): 23% | nuclei with multiple gH2AX-positive foci ([10]; 913, normoxia, 48 hours (control 11%)): 89%
